The values below come from ChEMBL document CHEMBL5723584 (2023).

In assay [1] the target is T1, Citron Rho-interacting kinase (Homo sapiens, UniProt O14578). The experiment in a line: NanoLuc NanoBRET (CITKD).
Assay [2] addresses T1, Citron Rho-interacting kinase. The experiment in a line: NanoLuc NanoBRET (CIT). A general note: BRET reads energy transfer from a luciferase to a nearby fluorophore.

T1 sequence (O14578 whole entry): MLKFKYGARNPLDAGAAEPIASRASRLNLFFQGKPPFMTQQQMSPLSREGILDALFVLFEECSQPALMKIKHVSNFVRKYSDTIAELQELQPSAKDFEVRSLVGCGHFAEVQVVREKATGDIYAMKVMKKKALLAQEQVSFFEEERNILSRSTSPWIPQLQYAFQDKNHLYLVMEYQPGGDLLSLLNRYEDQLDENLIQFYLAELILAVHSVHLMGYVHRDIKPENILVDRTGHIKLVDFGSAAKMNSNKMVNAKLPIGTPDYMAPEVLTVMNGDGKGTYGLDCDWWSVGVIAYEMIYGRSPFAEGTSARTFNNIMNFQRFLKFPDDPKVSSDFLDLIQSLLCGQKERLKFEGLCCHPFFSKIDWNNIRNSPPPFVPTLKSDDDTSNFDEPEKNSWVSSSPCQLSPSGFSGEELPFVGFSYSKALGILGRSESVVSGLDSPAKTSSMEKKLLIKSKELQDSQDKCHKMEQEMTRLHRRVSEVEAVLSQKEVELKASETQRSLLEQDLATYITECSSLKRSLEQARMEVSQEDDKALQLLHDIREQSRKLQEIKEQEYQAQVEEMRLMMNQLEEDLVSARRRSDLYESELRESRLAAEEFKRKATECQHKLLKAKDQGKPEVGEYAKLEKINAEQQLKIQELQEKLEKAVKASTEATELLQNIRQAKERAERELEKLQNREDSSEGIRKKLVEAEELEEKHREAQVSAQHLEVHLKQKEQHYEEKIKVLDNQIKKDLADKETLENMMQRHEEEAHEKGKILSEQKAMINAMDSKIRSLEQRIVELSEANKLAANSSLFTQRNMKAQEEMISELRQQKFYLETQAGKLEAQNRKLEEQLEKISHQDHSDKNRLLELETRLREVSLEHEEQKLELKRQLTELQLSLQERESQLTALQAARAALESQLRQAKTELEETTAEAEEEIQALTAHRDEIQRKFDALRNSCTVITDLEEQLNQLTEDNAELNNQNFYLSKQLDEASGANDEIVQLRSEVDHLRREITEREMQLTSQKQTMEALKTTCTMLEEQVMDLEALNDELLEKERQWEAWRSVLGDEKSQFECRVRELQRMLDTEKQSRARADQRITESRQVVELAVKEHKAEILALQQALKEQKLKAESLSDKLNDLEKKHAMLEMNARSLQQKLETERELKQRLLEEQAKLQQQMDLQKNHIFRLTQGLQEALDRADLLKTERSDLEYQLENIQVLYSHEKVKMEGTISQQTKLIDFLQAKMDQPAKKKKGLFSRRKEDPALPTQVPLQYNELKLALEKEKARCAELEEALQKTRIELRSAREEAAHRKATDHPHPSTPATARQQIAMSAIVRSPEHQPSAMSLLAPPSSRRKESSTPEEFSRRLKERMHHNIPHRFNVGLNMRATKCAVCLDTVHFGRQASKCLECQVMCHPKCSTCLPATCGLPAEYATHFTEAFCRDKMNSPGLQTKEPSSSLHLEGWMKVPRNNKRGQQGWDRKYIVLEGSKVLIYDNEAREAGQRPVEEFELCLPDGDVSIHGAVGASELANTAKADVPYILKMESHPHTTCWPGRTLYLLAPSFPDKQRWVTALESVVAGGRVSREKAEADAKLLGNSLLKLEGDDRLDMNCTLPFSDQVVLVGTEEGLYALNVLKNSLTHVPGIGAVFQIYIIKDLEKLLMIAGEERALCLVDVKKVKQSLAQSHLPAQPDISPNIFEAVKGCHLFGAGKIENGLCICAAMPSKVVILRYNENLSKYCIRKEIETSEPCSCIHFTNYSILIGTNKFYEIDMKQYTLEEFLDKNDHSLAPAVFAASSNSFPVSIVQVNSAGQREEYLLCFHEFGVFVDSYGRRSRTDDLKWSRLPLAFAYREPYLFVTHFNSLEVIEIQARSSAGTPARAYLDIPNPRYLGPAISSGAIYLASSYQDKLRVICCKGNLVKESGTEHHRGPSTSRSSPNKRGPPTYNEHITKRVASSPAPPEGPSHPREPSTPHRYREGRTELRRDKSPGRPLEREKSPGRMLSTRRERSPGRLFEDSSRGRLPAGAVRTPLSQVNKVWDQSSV

For `Cc1cc2c(-c3ccc(NC(=O)[C@H](N)CC(C)(C)C)cc3C)cncc2[nH]1`, the Kd entry in assay [1] and in assay [2] was “no binding” each time.
